According to the supplement of paper PMC10307832:

Columns and labels:
Assay in all cases: relative viability (nuclei count vs DMSO), 5 days (fraction); higher = more cells survive
Bleomycin + Decitabine = compound: CC1=C(N=C(N=C1N)[C@H](CC(=O)N)NC[C@@H](C(=O)N)N)C(=O)N[C@@H]([C@H](C2=CN=CN2)OC3C(C(C(C(O3)CO)O)O)OC4C(C(C(C(O4)CO)O)OC(=O)N)O)C(=O)N[C@H](C)[C@H]([C@H](C)C(=O)N[C@@H]([C@@H](C)O)C(=O)NCCC5=NC(=CS5)C6=NC(=CS6)C(=O)NCCC[S+](C)C)O [Bleomycin] + Nc1ncn([C@H]2C[C@H](O)[C@@H](CO)O2)c(=O)n1 [Decitabine] (partner 2 µM); settings: main component drawn
Method in brief: (§1)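 Five library-drug doses in √10 steps were combined with a fixed anchor-drug dose, or a single drug was given alone, by pin tool to lung cancer cell lines in 1536-well plates the day after seeding. Nuclei were stained and counted after 5 days. Relative viability is the nuclei count in treated wells over that in vehicle wells, taken as the median of duplicate plates.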

Bleomycin + Crizotinib = compound: CC1=C(N=C(N=C1N)[C@H](CC(=O)N)NC[C@@H](C(=O)N)N)C(=O)N[C@@H]([C@H](C2=CN=CN2)OC3C(C(C(C(O3)CO)O)O)OC4C(C(C(C(O4)CO)O)OC(=O)N)O)C(=O)N[C@H](C)[C@H]([C@H](C)C(=O)N[C@@H]([C@@H](C)O)C(=O)NCCC5=NC(=CS5)C6=NC(=CS6)C(=O)NCCC[S+](C)C)O [Bleomycin] + C[C@@H](Oc1cc(-c2cnn(C3CCNCC3)c2)cnc1N)c1c(Cl)ccc(F)c1Cl [Crizotinib] (partner 1 µM); settings: main component drawn
Method in brief: as §1

Bleomycin + OSI-027 = compound: CC1=C(N=C(N=C1N)[C@H](CC(=O)N)NC[C@@H](C(=O)N)N)C(=O)N[C@@H]([C@H](C2=CN=CN2)OC3C(C(C(C(O3)CO)O)O)OC4C(C(C(C(O4)CO)O)OC(=O)N)O)C(=O)N[C@H](C)[C@H]([C@H](C)C(=O)N[C@@H]([C@@H](C)O)C(=O)NCCC5=NC(=CS5)C6=NC(=CS6)C(=O)NCCC[S+](C)C)O [Bleomycin] + COc1cccc2cc(-c3nc([C@H]4CC[C@H](C(=O)O)CC4)n4ncnc(N)c34)[nH]c12 [OSI-027] (partner 0.5 µM); settings: main component drawn
Method in brief: as §1

Etoposide + OSI-027 = compound: COc1cc([C@@H]2c3cc4c(cc3[C@@H](O[C@@H]3O[C@@H]5CO[C@@H](C)O[C@H]5[C@H](O)[C@H]3O)[C@H]3COC(=O)[C@H]23)OCO4)cc(OC)c1O [Etoposide] + COc1cccc2cc(-c3nc([C@H]4CC[C@H](C(=O)O)CC4)n4ncnc(N)c34)[nH]c12 [OSI-027] (partner 0.5 µM)
Method in brief: as §1

Row | Cell Line | relative viability (Bleomycin + Decitabine; first compound 0.03162 µM) | relative viability (Bleomycin + Decitabine; first compound 0.1 µM) | relative viability (Bleomycin + Decitabine; first compound 0.3162 µM) | relative viability (Bleomycin + Decitabine; first compound 1 µM) | relative viability (Bleomycin + Crizotinib; first compound 0.01 µM) | relative viability (Bleomycin + Crizotinib; first compound 0.03162 µM) | relative viability (Bleomycin + Crizotinib; first compound 0.1 µM) | relative viability (Bleomycin + Crizotinib; first compound 0.3162 µM) | relative viability (Bleomycin + Crizotinib; first compound 1 µM) | relative viability (Bleomycin + OSI-027; first compound 0.01 µM) | relative viability (Bleomycin + OSI-027; first compound 0.03162 µM) | relative viability (Bleomycin + OSI-027; first compound 0.1 µM) | relative viability (Bleomycin + OSI-027; first compound 0.3162 µM) | relative viability (Bleomycin + OSI-027; first compound 1 µM) | relative viability (Etoposide + OSI-027; first compound 0.01 µM) | relative viability (Etoposide + OSI-027; first compound 0.03162 µM) | relative viability (Etoposide + OSI-027; first compound 0.1 µM) | relative viability (Etoposide + OSI-027; first compound 0.3162 µM) | relative viability (Etoposide + OSI-027; first compound 1 µM) | relative viability (Bleomycin + Decitabine; first compound 0.01 µM)
1 | EMC-BAC-2 | 0.712 | 0.538 | 0.342 | 0.328 | 0.628 | 0.626 | 0.738 | 0.318 | 0.241 | 0.298 | 0.326 | 0.304 | 0.257 | 0.159 | 0.353 | 0.383 | 0.294 | 0.23 | 0.15 | –
2 | NCI-H1993 | 0.507 | 0.556 | 0.519 | 0.436 | 0.629 | 0.712 | 0.693 | 0.678 | 0.527 | 0.541 | 0.483 | 0.513 | 0.535 | 0.422 | 0.565 | 0.452 | 0.53 | 0.508 | 0.522 | 0.602
3 | NCI-H596 | 0.83 | 0.55 | 0.495 | 0.509 | 0.896 | 0.661 | 0.558 | 0.409 | 0.475 | 0.48 | 0.561 | 0.512 | 0.304 | 0.278 | 0.695 | 0.831 | 0.467 | 0.56 | 0.546 | 1
4 | NCI-H650 | 0.318 | 0.299 | 0.2 | 0.175 | 0.502 | 0.718 | 0.629 | 0.237 | 0.303 | 0.433 | 0.546 | 0.481 | 0.429 | 0.234 | 0.571 | 0.506 | 0.44 | 0.443 | 0.249 | 0.305
5 | NCI-H1792 | 0.649 | 0.558 | 0.3 | 0.252 | 0.886 | 0.971 | 0.675 | 0.312 | 0.258 | 0.728 | 0.863 | 0.649 | 0.459 | 0.338 | 0.509 | 0.699 | 0.51 | 0.696 | 0.537 | 0.521
6 | SW 1573 | 0.442 | 0.311 | 0.19 | 0.197 | 0.713 | 0.604 | 0.711 | 0.402 | 0.227 | 0.566 | 0.407 | 0.382 | 0.258 | 0.169 | 0.707 | 0.593 | 0.277 | 0.265 | 0.116 | 0.368
7 | ChaGo-K-1 | 0.506 | 0.476 | 0.433 | 0.364 | – | 0.999 | 0.754 | 0.385 | 0.333 | 0.46 | 0.536 | 0.5 | 0.302 | 0.179 | 0.487 | 0.689 | 0.466 | 0.285 | 0.174 | 0.492
8 | NCI-H1650 | 0.253 | 0.163 | 0.184 | 0.146 | 0.397 | 0.311 | 0.258 | 0.16 | 0.172 | 0.468 | 0.332 | 0.227 | 0.171 | 0.151 | 0.711 | 0.556 | 0.41 | 0.32 | 0.163 | 0.295
9 | NCI-H2009 | 0.392 | 0.353 | 0.293 | 0.271 | 0.976 | 1.07 | 0.991 | 0.603 | 0.459 | 0.606 | 0.609 | 0.637 | 0.501 | 0.41 | 0.572 | 0.659 | 0.454 | 0.539 | 0.369 | 0.39
10 | LOU-NH91 | 0.611 | 0.472 | 0.38 | 0.406 | 0.593 | 0.537 | 0.531 | 0.39 | 0.331 | 0.667 | 0.564 | 0.555 | 0.503 | 0.306 | 0.723 | 0.794 | 0.493 | 0.71 | 0.612 | 0.624
11 | NCI-H3122 | 0.49 | 0.358 | 0.324 | 0.26 | 0.253 | 0.271 | 0.305 | 0.214 | 0.253 | 0.917 | 1.03 | 0.76 | 0.262 | 0.261 | 0.799 | 0.985 | 0.404 | 0.722 | 0.349 | 0.441
12 | LCLC-97TM1 | 0.156 | 0.168 | 0.158 | 0.0988 | 0.18 | 0.219 | 0.14 | 0.109 | 0.0966 | 0.444 | 0.403 | 0.177 | 0.196 | 0.108 | 0.532 | 0.517 | 0.403 | 0.423 | 0.116 | 0.2
13 | NCI-H647 | 0.183 | 0.152 | 0.0939 | 0.0806 | 0.313 | 0.326 | 0.213 | 0.135 | 0.109 | 0.195 | 0.184 | 0.184 | 0.0871 | 0.0587 | 0.579 | 0.627 | 0.456 | 0.491 | 0.267 | 0.289
